Laboratory results taken from patent US11708353B2, “Inhibitors of prolyl-tRNA-synthetase” (The General Hospital Corporation, priority 2018, dated 2023).

Test system: P. falciparum Dd2 wildtype
Experiment: SYBR Green I asexual blood stage growth assay, Dd2 wildtype
Format: cell-based
Details: Plasmodium falciparum, DD2, 72 h, read-out: P. falciparum Dd2 wildtype Asexual blood stage EC50 (nM)
Method: (§1) P. falciparum parasite growth was determined using a fluorescence assay based on the SYBR Green I method according to previously reported protocols (see e.g., Johnson et al, Antimicrob. Agents Chemother. 2007, 51(6):1926-1933). P. falciparum parasites were seeded in 384-well plates at 1% hematocrit and 1% starting parasitemia. Growth was assessed by SYBR Green staining of parasite DNA after 72-hour exposure to compound. All dose-response assays were carried out with 12-point dilutions in technical triplicate. Compounds were dispensed with an HP D300 Digital Dispenser (Hewlett Packard, Palo Alto, Calif., USA). Fluorescence intensity measurements were performed on a SpectraMax M5 (Molecular Devices, Sunnyvale, Calif., USA) and analyzed in GraphPad Prism version 7 (GraphPad Software, La Jolla, Calif., USA) after background subtraction and normalization to control wells. EC50 values were determined using a four-parameter nonlinear regression curve fit from at least three assays and are represented as mean±standard deviation. Statistical significance was determined by the Mann Whitney test.

Row | SMILES | EC50 [nM]
1 | O=C(CCCC(=O)NC1(C(=O)Nc2nccnc2C(=O)NC2Cc3ccccc3C2)CCCCC1)NCCOCCOCCNC(=O)COc1cccc2c1C(=O)N(C1CCC(=O)NC1=O)C2=O (stereo not drawn) [Compound 33] | 8540

Same assay, conditions: Plasmodium falciparum, DD2; 72-hour exposure, SYBR Green; read-out: P. falciparum Dd2 wildtype Asexual blood stage EC50

Row | SMILES | EC50 [nM]
2 | CN(C(=O)c1nccnc1N)C1Cc2ccccc2C1 [Compound 38] | > 10000
3 | O=C(NC1Cc2ccccc2C1)c1nccnc1NC(=O)C1CCC1 [Compound 9] | 3540
4 | Nc1nccnc1C(=O)NC1Cc2ccccc2C1 [Compound 15] | > 10000
5 | O=C(NC1Cc2ccccc2C1)c1nccnc1NC(=S)NC1CCCCC1 [Compound 35] | 8270
6 | O=C(NC1Cc2ccccc2C1)c1nccnc1NS(=O)(=O)C1CCCCC1 [Compound 17] | > 10000
7 | O=C(NC1CCCCC1)c1nccnc1NC(=O)C1Cc2ccccc2C1 [Compound 30] | 9540
8 | CC(C)(C)OC(=O)NC1(C(=O)Nc2nccnc2C(=O)NC2Cc3ccccc3C2)CCCCC1 [Compound 32] | 9520
9 | NC1(C(=O)Nc2nccnc2C(=O)NC2Cc3ccccc3C2)CCCCC1 [Compound 34] | 4840
10 | Nc1nccnc1C(=O)NCc1ccc(Cl)cc1 [Compound 12] | > 10000
11 | NCCCCNC(=O)Nc1nccnc1C(=O)NC1Cc2ccccc2C1 [Compound 1] | > 10000
12 | CN1CCN(C(=O)Nc2nccnc2C(=O)NC2Cc3ccccc3C2)CC1 [Compound 10] | 1830
13 | O=C(Nc1nccnc1C(=O)NC1Cc2ccccc2C1)NC1CCCCC1 [Compound 36] | > 10000
14 | O=C(O)CCCC(=O)Nc1nccnc1C(=O)NC1Cc2ccccc2C1 [Compound 5] | > 10000
15 | O=c1[nH]c2nccnc2c(=O)n1C1Cc2ccccc2C1 [Compound 25] | > 10000
16 | CNc1nccnc1C(=O)NC1Cc2ccccc2C1 [Compound 31] | > 10000
17 | O=C(NC1Cc2ccccc2C1)c1nccnc1NC(=O)N1CCCC(C(=O)O)C1 (stereo not drawn) [Compound 11] | 6200
18 | CC(C)(C)OC(=O)N1CCCCC1C(=O)Nc1nccnc1C(=O)NC1Cc2ccccc2C1 (stereo not drawn) [Compound 6] | 3790
19 | Nc1nccnc1C(=O)NC1CCCCC1 [Compound 29] | > 10000
20 | O=C(NC1Cc2ccccc2C1)c1nccnc1NC(=O)C1(O)CCCCC1 [Compound 21] | 1350

Row | SMILES | EC50 [nM]
21 | O=C(NC1Cc2ccccc2C1)c1nccnc1NC(=O)N(C1CCCCC1)C1CCCCC1 [Compound 13] | 4940
22 | O=C(NC1Cc2ccccc2C1)c1nccnc1NC(=O)C1CCCCN1 (stereo not drawn) [Compound 7] | 2990
23 | O=C(Nc1nccnc1C(=O)NC1Cc2ccccc2C1)c1ccccc1 [Compound 24] | > 10000
24 | CC(C)(C)OC(=O)N1CCC[C@H]1C(=O)NCCCCNC(=O)Nc1nccnc1C(=O)NC1Cc2ccccc2C1 [Compound 3] | > 10000
25 | CC(C)N(C(=O)Nc1nccnc1C(=O)NC1Cc2ccccc2C1)C(C)C [Compound 8] | 499
26 | O=C(NC1CCCCC1)c1nccnc1C(=O)NC1Cc2ccccc2C1 [Compound 28] | > 10000
27 | O=C(C[C@H]1NCCC[C@@H]1OC(=O)NCCCCNC(=O)Nc1nccnc1C(=O)NC1Cc2ccccc2C1)Cn1cnc2cc(Br)c(Cl)cc2c1=O [Compound 2] | > 10000
28 | CC1(C(=O)Nc2nccnc2C(=O)NC2Cc3ccccc3C2)CCCCC1 [Compound 19] | 173
29 | O=C(NC1Cc2ccccc2C1)c1nccnc1NC(=O)N1CCCCC1 [Compound 18] | 63
30 | O=C(Nc1nccnc1C(=O)NC1Cc2ccccc2C1)NC12CC3CC(CC(C3)C1)C2 [Compound 39] | > 10000
31 | CC(C)(C)OC(=O)N[C@H]1CC[C@@H](C(=O)Nc2nccnc2C(=O)NC2Cc3ccccc3C2)CC1 [Compound 23] | 386
32 | O=C(NC1Cc2ccccc2C1)c1nccnc1NC(=O)C1CCCCC1 [Compound 16] | 544
33 | NC(=O)Nc1nccnc1C(=O)NC1Cc2ccccc2C1 [Compound 26] | 9960
34 | C[C@@H]1CCC[C@H](C)N1C(=O)Nc1nccnc1C(=O)NC1Cc2ccccc2C1 [Compound 14] | 73
35 | O=C(NC1Cc2ccccc2C1)c1nccnc1N(C(=O)C1CCCCC1)C(=O)C1CCCCC1 [Compound 22] | 627
36 | O=C(NC1Cc2ccccc2C1)c1nccnc1NCC1CCCCC1 [Compound 37] | > 10000
37 | O=C(NCCCCNC(=O)[C@@H]1CCCN1)Nc1nccnc1C(=O)NC1Cc2ccccc2C1 [Compound 4] | > 10000
38 | O=C(O)c1nccnc1C(=O)NC1Cc2ccccc2C1 [Compound 27] | > 10000
39 | O=C(NC1Cc2ccccc2C1)c1nccnc1NC(=O)C1CCOCC1 [Compound 20] | > 10000

Test system: P. falciparum
Experiment: not given
Details: read-out: EC50 against P. falciparum in whole-cell assays; cited from earlier work

Row | SMILES | EC50 [µM]
40 | Nc1ncnc2c1ncn2[C@@H]1O[C@H](COS(=O)(=O)NC(=O)[C@@H]2CCCN2)[C@@H](O)[C@H]1O [ProSA, L-prolyl-sulfamoyl adenosine] | 0.097

Test system: P. falciparum Dd2 (>100× resistence to halofuginone)
Experiment: SYBR Green I asexual blood stage growth assay, Dd2 >100x halofuginone-resistant
Format: cell-based
Details: Plasmodium falciparum, DD2, 72 h, read-out: P. falciparum Dd2 (>100× resistence to halofuginone) Asexual blood stage IC50 (nM)
Method: as §1

Row | SMILES | IC50 [nM]
41 | O=C(NC1Cc2ccccc2C1)c1nccnc1NC(=O)N1CCCCC1 [Compound 18] | 74

Test system: wild-type 3D7 parasites
Experiment: Antiparasitic activity in wild-type 3D7 parasites
Format: cell-based
Details: Plasmodium falciparum, 3D7, read-out: EC50 in wild-type parasites
Method: as §1, with “test. […]” for “test.”

Row | SMILES | EC50 [µM]
42 | O=C(NC1Cc2ccccc2C1)c1nccnc1NC(=O)N1CCCCC1 [Compound 18] | 0.078

Test system: P. falciparum Dd2 (10× resistence to halofuginone)
Experiment: SYBR Green I asexual blood stage growth assay, Dd2 10x halofuginone-resistant
Format: cell-based
Details: Plasmodium falciparum, DD2, 72 h, read-out: P. falciparum Dd2 (10× resistence to halofuginone) Asexual blood stage IC50 (nM)
Method: as §1

Row | SMILES | IC50 [nM]
43 | O=C(NC1Cc2ccccc2C1)c1nccnc1NC(=O)N1CCCCC1 [Compound 18] | 130
44 | O=C(NC1Cc2ccccc2C1)c1nccnc1NC(=O)C1CCCCC1 [Compound 16] | 1160

Biological target: T1, Plasmodium falciparum cytoplasmic prolyl tRNA synthetase (PfcPRS) (Plasmodium falciparum, UniProt Q8I5R7)
T1 sequence (Q8I5R7 1-746): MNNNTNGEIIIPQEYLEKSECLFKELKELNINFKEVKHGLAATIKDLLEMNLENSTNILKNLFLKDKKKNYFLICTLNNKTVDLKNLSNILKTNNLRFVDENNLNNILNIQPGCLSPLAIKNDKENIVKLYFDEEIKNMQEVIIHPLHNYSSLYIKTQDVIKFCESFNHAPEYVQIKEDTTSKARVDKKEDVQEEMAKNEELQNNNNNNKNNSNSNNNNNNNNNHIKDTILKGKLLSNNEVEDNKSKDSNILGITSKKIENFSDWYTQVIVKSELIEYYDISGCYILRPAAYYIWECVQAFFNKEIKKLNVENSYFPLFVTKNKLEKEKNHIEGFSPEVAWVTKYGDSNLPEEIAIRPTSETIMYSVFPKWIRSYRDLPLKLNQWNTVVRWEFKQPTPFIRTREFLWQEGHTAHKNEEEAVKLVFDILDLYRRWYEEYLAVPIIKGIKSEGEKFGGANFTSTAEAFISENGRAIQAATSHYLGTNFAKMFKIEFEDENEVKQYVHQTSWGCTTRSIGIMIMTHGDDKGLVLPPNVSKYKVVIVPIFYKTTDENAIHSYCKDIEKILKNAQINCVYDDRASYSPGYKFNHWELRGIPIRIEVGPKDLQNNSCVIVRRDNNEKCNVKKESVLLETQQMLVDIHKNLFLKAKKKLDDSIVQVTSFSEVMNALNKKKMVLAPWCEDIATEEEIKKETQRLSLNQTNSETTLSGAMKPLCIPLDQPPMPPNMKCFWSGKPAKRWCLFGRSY
Experiment: Thermal shift (differential scanning fluorimetry) assay
Format: binding
Details: not given
Method: Thermal shift assays were performed in tetricate as previously described (Hewitt et al., 2016). 12.5 μL solutions of 0.14 mg/mL purified recombinant Plasmodium falciparum cytoplasmic prolyl tRNA synthetase (PfcPRS) in a buffer containing […] test compounds (1 mM Compound 18+1 mM Proline; 1 mM Compound 18+0 mM Proline; or DMSO vehicle control), 25 mM HEPES, pH 7.0, 100 mM NaCl, 5 v/v % glycerol, 1 mM TCEP, and optionally 1 mM Proline were incubated at 37° C. for 2 hours in 96 well PCR plates. To this was added 2.5 μL 8× SYRPO Orange Dye (Applied Biosystems 4461141) and 5 μL Protein Thermal Shift Buffer (Applied Biosystems 4461335). Protein stability for protein samples containing the test compounds was compared with apo protein samples by measuring an increase in fluorescence as detected on an Applied Biosystems SDS 7500 Fast qPCR Thermocycler from 25° C. to 99° C. at half degree increments.

Row | SMILES | Binding mode to PfcPRS relative to proline
45 | O=C(NC1Cc2ccccc2C1)c1nccnc1NC(=O)N1CCCCC1 [Compound 18] | binds PfcPRS in proline-uncompetitive fashion

Same assay, conditions: with 1 mM vs 0 mM Proline, FIG. 3C

Row | SMILES | Effect of proline on binding to PfcPRS (differential scanning fluorimetry)
46 | O=C(NC1Cc2ccccc2C1)c1nccnc1NC(=O)N1CCCCC1 [Compound 18] | Pro potentiates Compound 18 binding to PfcPRS

Test system: HFG-tolerant 3D7 parasites
Experiment: Antiparasitic activity in HFG-tolerant 3D7 parasites
Format: cell-based
Details: Plasmodium falciparum, 3D7, read-out: EC50 in HFG-tolerant parasites
Method: as §1, with “test. […]” for “test.”

Row | SMILES | EC50 [µM]
47 | O=C(NC1Cc2ccccc2C1)c1nccnc1NC(=O)N1CCCCC1 [Compound 18] | 0.13

Test system: eIF2α phosphorylation
Experiment: not given
Details: cited from earlier work

Row | SMILES | eIF2α phosphorylation
48 | Nc1ncnc2c1ncn2[C@@H]1O[C@H](COS(=O)(=O)NC(=O)[C@@H]2CCCN2)[C@@H](O)[C@H]1O [ProSA, L-prolyl-sulfamoyl adenosine] | induces eIF2α phosphorylation
